# Test results: US10251909B2 (Board of Regents, the University of Texas System, priority 2007, dated 2019)
# Read-outs that look alike come from different tables or passages of the source.
# Columns and labels:
# [1] = Blood pressure during 5 months of KMgCitrate or potassium chloride with hydrochlorothiazide, 21 normal subjects (Example 1); assay type: in vivo, Human; conditions: for fall in diastolic blood pressure (supine) / fall in systolic blood pressure (supine): 42 mEq K per day with hydrochlorothiazide 50 mg/day, monthly for 5 months versus baseline, normal subjects; for effect on blood pressure: normal subjects given hydrochlorothiazide concurrently for 5 months, as early as one month and as long as 5 months
# Description: FIG. 2 graphically illustrates the effect of KMgCitrate (K4MgCit2) on blood pressure in 21 normal subjects. Changes in systolic and diastolic blood pressures from baseline (before treatment) occurring during 5 months of treatment with potassium chloride (KCl) or KMgCitrate with hydrochlorothiazide are shown individually. * p<0.05 from time zero, ** p<0.01.
# In the recently published study by Odvina et al. (Am J Therap 13: 101-108, 2006) that examined the value of KMgCitrate in the prevention of thiazide-induced hypomagnesemia, the unpublished data on blood pressure were extracted. Twenty-one normal subjects participated in the trial. All were started on hydrochorothiazide 50 mg/day. Ten subjects took simultaneously KMgCitrate at a dose of 42 mEq K and […] per day, while 11 subjects received potassium chloride (42 mEq/day). Supine blood pressures were taken before and each month for 5 months. FIG. 3 compares the systolic and diastolic blood pressures between the two groups.
# [2] = in vivo; cited from earlier work
# [3] = Odvina, 42 mEq K qd; cited from earlier work
# [4] = cited from earlier work
# [5] = Tolerability of KMgCitrate; assay type: in vivo; conditions: usual dosage about 40 mEq potassium, 20 mEq magnesium, 60 mEq citrate
# [6] = Insulin responsiveness by hyperinsulinemic euglycemic pump procedure, two subjects with uric acid stones (Example 2); assay type: in vivo, Human; conditions: 49 mEq K, 24.5 mEq Mg per day for 4 weeks
# Method: In two subjects with uric acid stones, insulin responsiveness was determined before and after KMgCitrate treatment (49 mEq K, 24.5 mEq Mg per day for 4 weeks) by a hyperinsulinemic euglycemic pump procedure. During intravenous infusion of insulin, glucose was infused at a rate sufficient to maintain a constant glucose concentration. Insulin responsiveness was determined from the glucose disposal rate.
# [7] = cited from earlier work; remark: listed apart in the source
# [8] = cited from earlier work; remark: listed apart in the source
# [9] = cited from earlier work; remark: listed apart in the source
# [10] = both groups, before potassium supplementation; cited from earlier work
# [11] = thirty subjects with hypomagnesemia on thiazide alone; cited from earlier work
# [12] = 49 mEq K, 24.5 mEq Mg/day for 3 weeks while continuing hydrochlorothiazide 50 mg/day
# [13] = during therapy versus control phase, constant metabolic diet
# [14] = during therapy, constant metabolic diet
smiles,measurement,setting,value
"[Cl-].[K+] [potassium chloride, reference compound]",fall in diastolic blood pressure (supine),[1],trend for systolic and diastolic blood pressures to decrease
same,fall in systolic blood pressure (supine),[1],trend for systolic and diastolic blood pressures to decrease
same,effect on blood pressure,[1],no statistically significant effect
same,urinary calcium,[2],has no effect
"O=C([O-])CC(O)(CC(=O)[O-])C(=O)[O-].O=C([O-])CC(O)(CC(=O)[O-])C(=O)[O-].[K+].[K+].[K+].[K+].[Mg+2] [KMgCitrate, tetrapotassium monomagnesium dicitrate]",Increment in Urinary Magnesium,[3],57 to 63 mg/day
same,Increment in Urinary Potassium,[3],30–50 mEq/day
same,relative risk of treatment failure compared with placebo,"[4]; 42 mEq K, 21 mEq Mg/day for up to 3 years",0.16 (95% confidence interval of 0.05-0.46)
same,patients in whom new calculi formed,"[4]; 42 mEq K, 21 mEq Mg/day for up to 3 years, placebo 63.6%",12.6%
same,stone formation rate,"[4]; randomized trial, patients with calcium oxalate nephrolithiasis",dramatically reduced
same,tolerability / side effect profile,[5],"well tolerated, with a low side effect profile"
same,"glucose disposal rate after treatment, second patient",[6]; 2.2 mg/m^2/min before treatment,2.8 mg/m^2/min
same,"glucose disposal rate after treatment, first patient",[6]; 3.2 mg/m^2/min before treatment,4.3 mg/m^2/min
same,insulin responsiveness,[6]; hyperinsulinemic euglycemic pump,improved insulin responsiveness
same,fall in diastolic blood pressure (supine),[1],significant only in the KMgCitrate group
same,fall in systolic blood pressure (supine),[1],significant only in the KMgCitrate group
same,effect on blood pressure,[1],significant reduction
same,serum potassium concentration,[7]; [12],increased significantly
same,serum potassium determinations reaching normal limits,[7]; [12],81.7%
same,Increment in Urinary Magnesium,"[7]; Ruml, 49 mEq K qd",38 mg/day
same,Increment in Urinary Potassium,"[7]; Ruml, 49 mEq K qd",33 mEq/day
same,peak excretion rate of urinary potassium,"[8]; single oral load (KMgCitrate 49 mEq potassium, 24.5 mEq magnesium, 73.5 mEq citrate), timed urine 24 hours, 15 normal volunteers",comparable to that of potassium citrate and potassium chloride
same,peak excretion rate and peak time of urinary magnesium,"[8]; single oral load, 24.5-25 mEq magnesium, 15 normal volunteers",comparable between KMgCitrate and magnesium citrate
same,cumulative increment in urinary magnesium,"[8]; single oral load, 24.5-25 mEq magnesium, potassium citrate as control",equivalent between KMgCitrate and magnesium citrate
same,peak time (time to reach peak excretion rate) of urinary potassium,"[8]; single oral load, 49-50 mEq potassium, 15 normal volunteers",about 4 hours
same,Increment in Urinary Magnesium,"[9]; Pak, 49 mEq K qd",44 mg/day
same,Increment in Urinary Potassium,"[9]; Pak, 49 mEq K qd",51 mEq/day
same,alkali load,"[9]; at the same dose of potassium, versus potassium citrate",greater alkali load than potassium citrate
same,urinary pH,[9]; [13],rose from the control phase
same,urinary potassium,[9]; [13],rose from the control phase
same,inhibitor activity of brushite,[9]; [14],increased
same,inhibitor activity of calcium oxalate,[9]; [14],increased
same,urinary saturation of calcium oxalate (activity product),[9]; [14],reduced
same,urinary saturation of uric acid (content of undissociated uric acid),[9]; [14],reduced
"NS(=O)(=O)c1cc2c(cc1Cl)NCNS2(=O)=O [thiazide, hydrochlorothiazide]",serum potassium concentration on thiazide alone,"[7]; hydrochlorothiazide 50 mg/day for 3 weeks, normal subjects",decreased significantly to below the normal range in most subjects
same,serum potassium concentration on thiazide alone,[10],decreased significantly
same,serum magnesium concentration during thiazide alone versus before treatment,[11],significantly lower
"O=C([O-])CC(O)(CC(=O)[O-])C(=O)[O-].[K+].[K+].[K+] [Potassium citrate, potassium citrate, reference compound]",urinary citrate,[9]; [13],did not raise pH or citrate as much
same,urinary pH,[9]; [13],did not raise pH or citrate as much
same,urinary magnesium excretion,[9]; [14],did not augment
